Measured values published in patent US8623429B2, “Stabilized anthocyanin compositions” (Omnica GmbH, priority 2007, dated 2014).

Experiments:
Type in all cases: physicochemical
[1] = Example 3: stability of black currant extract anthocyanosides, 4 hours at 37° C., pH 7.0, with/without DHLA, GSH or L-cysteine (HPLC)
Experimental: (§1) Sample a) 60 mg black currant extract [35% anthocyanosides] (0.037 mmol anthocyanosides expressed as cyanidin-3-O-rutinoside) were added to a 100 ml flask and filled to volume with sodium phosphate buffer (5% [w/w], pH=7.0) and stirred until dissolution was complete. A 1 ml sample was taken immediately, acidified with formic acid to pH=1.0 and analyzed by HPLC for the content of anthocyanosides (Fresh Sample). The remaining solution was kept for 4 hours at 37° C. (water bath) with stirring. Thereafter samples (Blank sample), representing unprotected degradation, were taken and acidified.
(§2) Sample b) 20 mg reduced L-glutathione (0.065 mmol) were added to a 100 ml flask with 60 ml sodium phosphate buffer (5% [w/w], pH=7.0) and stirred until dissolution was complete. 60 mg black currant extract [35% anthocyanosides] (0.037 mmol anthocyanosides expressed as cyanidin-3-O-rutinoside) were then added and the flask was filled to volume with sodium phosphate buffer (5% [w/w], pH=7.0) and kept for 4 hours at 37° C. (water bath) with stirring.
as §2, with “Sample c)” for “Sample b)”, “mg dihydrolipoic acid (0.096” for “mg reduced L-glutathione (0.065”, “was completed.” for “was complete.”, “were” for “were then”, “added to” for “added and”, “the flask,” for “the flask was”
as §2, with “Sample d)” for “Sample b)”, “mg L-cysteine acid (0.165” for “mg reduced L-glutathione (0.065”, “were” for “were then”, “added to” for “added and”, “the flask,” for “the flask was”
After 4 hours samples were taken, acidified immediately with formic acid to pH=1.0 and analyzed by HPLC for the content of anthocyanosides. Degradation is expressed as decrease in peak area of individual peaks (calculated as % left after 4 hours).
(§3) Samples were prepared as outlined below in HPLC Analytical Method. Test stability samples were immediately acidified (to block degradation) and injected undiluted following the detailed description provided below.
HPLC Analytical Method (Materials, Instruments and Methods): […]

[2] = Example 5: degradation over time of black currant anthocyanosides at 37° C., pH 7.0, with/without GSH (HPLC); settings: pH 7.0, 37° C.; for %-residual anthocyanosides (% left): 4 hours
Experimental: as §1, with “flask,” for “flask and”, “anthocyanosides.” for “anthocyanosides (Fresh Sample).”, “kept” for “kept for 4 hours”, “stirring and 1 ml” for “stirring. Thereafter”, “Samples),” for “sample),”, “every 15 minutes. The samples were analyzed for selected anthocyanosides by HPLC.” for “and acidified.”
as §2, with “added,” for “then added and”, “for” for “for 4 hours”, “stirring. Every 15 minutes 1 ml samples were taken and analyzed for selected anthocyanosides by HPLC.” for “stirring.”
as §3

[3] = Example 8: oxidation of GSH to GSSG in buffer pH 7.0 at 37° C. with/without bilberry extract (HPLC); settings: buffer pH 7.0, 37° C.
Experimental: Sample a) 60 mg GSH (0.192 mmol) were placed into a 100 ml flask, dissolved and filled up to volume with sodium phosphate buffer (5% [w/w], pH=7.0). The sample was kept with stirring at 37° C. Samples were taken immediately after dissolution and after 1, 2, 3 and 4 hours of incubation. The samples were analyzed by HPLC for GSH and GSSG (representing the oxidized form of GSH).
Sample b) 60 mg reduced L-glutathione (0.192 mmol) were added to a 100 ml flask with 60 ml sodium phosphate buffer (5% [w/w], pH=7.0) and stirred until dissolution was complete. 60 mg bilberry extract [37% anthocyanosides] (0.048 mmol expressed as cyanidin-3-O-glucoside) were added, the flask was filled to volume with sodium phosphate buffer (5% [w/w], pH=7.0) and kept at 37° C. (water bath) with stirring. Samples were taken immediately after dissolution and after 1, 2, 3 and 4 hours of incubation. The samples were analyzed by HPLC for GSH and GSSG (representing the oxidized form of GSH).
as §3

[4] = unprotected, pH 7.0, 37° C., 4 hours

C[C@@H]1O[C@@H](OC[C@H]2O[C@@H](Oc3cc4c(O)cc(O)cc4[o+]c3-c3cc(O)c(O)c(O)c3)[C@H](O)[C@@H](O)[C@@H]2O)[C@H](O)[C@H](O)[C@H]1O [Dp-3-O-Rut, Delphinidin-3-O-rutinoside]
Peak Area, Fresh solution ([1]; black currant extract 60 mg/100 ml buffer pH 7.0, fresh sample): 5207
% left, DHLA 20 mg ([1]; pH 7.0, 37° C., 4 hours): 51.7%
% left, GSH 20 mg ([1]; pH 7.0, 37° C., 4 hours): 53.1%
% left, L-cysteine 20 mg ([1]; pH 7.0, 37° C., 4 hours): 38.0%
Peak Area, DHLA 20 mg ([1]; pH 7.0, 37° C., 4 hours): 2692
Peak Area, GSH 20 mg ([1]; pH 7.0, 37° C., 4 hours): 2764
Peak Area, L-cysteine 20 mg ([1]; pH 7.0, 37° C., 4 hours): 1975
% left, Blank [1, 4]: 12.0%
Peak Area, Blank [1, 4]: 626.2
Peak Area ([2]; Blank sample, 0:00 h): 5207.5
Peak Area ([2]; Blank sample, 0:15 h): 3604.2
Peak Area ([2]; Blank sample, 0:30 h): 3366.5
Peak Area ([2]; Blank sample, 0:45 h): 2787.9
Peak Area ([2]; Blank sample, 1:00 h): 2660.6
Peak Area ([2]; Blank sample, 1:30 h): 2299.5
Peak Area ([2]; Blank sample, 1:45 h): 2291.6
Peak Area ([2]; Blank sample, 2:00 h): 1825.7
Peak Area ([2]; Blank sample, 2:15 h): 1747.2
Peak Area ([2]; Blank sample, 2:30 h): 1552.5
Peak Area ([2]; Blank sample, 2:45 h): 1442.9
Peak Area ([2]; Blank sample, 3:00 h): 1235.4
Peak Area ([2]; Blank sample, 3:15 h): 1166.0
Peak Area ([2]; Blank sample, 3:30 h): 907.2
Peak Area ([2]; Blank sample, 3:45 h): 891.1
Peak Area ([2]; Blank sample, 4:00 h): 626.2
%-residual anthocyanosides (% left) ([2]; Blank): 12%
Peak Area ([2]; GSH protected sample (20 mg), 0:00 h): 5201.3
Peak Area ([2]; GSH protected sample (20 mg), 0:15 h): 4584.2
Peak Area ([2]; GSH protected sample (20 mg), 0:45 h): 4275.7
Peak Area ([2]; GSH protected sample (20 mg), 1:00 h): 4273.1
Peak Area ([2]; GSH protected sample (20 mg), 1:15 h): 4168.7
Peak Area ([2]; GSH protected sample (20 mg), 1:45 h): 3749.9
Peak Area ([2]; GSH protected sample (20 mg), 2:00 h): 3813.3
Peak Area ([2]; GSH protected sample (20 mg), 2:15 h): 3544.9
Peak Area ([2]; GSH protected sample (20 mg), 2:45 h): 3199.5
Peak Area ([2]; GSH protected sample (20 mg), 3:00 h): 3327.2
Peak Area ([2]; GSH protected sample (20 mg), 3:15 h): 2993.9
Peak Area ([2]; GSH protected sample (20 mg), 3:45 h): 2761.0
Peak Area ([2]; GSH protected sample (20 mg), 4:00 h): 2763.6
Peak Area ([2]; GSH protected sample (20 mg), 4:15 h): 2579.8
%-residual anthocyanosides (% left) ([2]; GSH-protected): 53%

N[C@@H](CCC(=O)N[C@@H](CS)C(=O)NCC(=O)O)C(=O)O [GSH, reduced L-glutathione]
Peak Area ([3]; GSH + bilberry Sample, 0 hours): 4760
peak area Ratio % ([3]; GSH + bilberry Sample, 0 hours): 92.3%
Peak Area ([3]; GSH + bilberry Sample, 1 hour): 4071
peak area Ratio % ([3]; GSH + bilberry Sample, 1 hour): 79.0%
Peak Area ([3]; GSH + bilberry Sample, 2 hours): 3378
peak area Ratio % ([3]; GSH + bilberry Sample, 2 hours): 65.5%
Peak Area ([3]; GSH + bilberry Sample, 3 hours): 3045
peak area Ratio % ([3]; GSH + bilberry Sample, 3 hours): 59.1%
Peak Area ([3]; GSH + bilberry Sample, 4 hours): 2461
peak area Ratio % ([3]; GSH + bilberry Sample, 4 hours): 47.7%
Peak Area ([3]; GSH Sample, 0 hours): 4760
peak area Ratio % ([3]; GSH Sample, 0 hours): 92.3%
Peak Area ([3]; GSH Sample, 1 hour): 4744
peak area Ratio % ([3]; GSH Sample, 1 hour): 92.0%
Peak Area ([3]; GSH Sample, 2 hours): 4220
peak area Ratio % ([3]; GSH Sample, 2 hours): 81.9%
Peak Area ([3]; GSH Sample, 3 hours): 4053
peak area Ratio % ([3]; GSH Sample, 3 hours): 78.6%
Peak Area ([3]; GSH Sample, 4 hours): 3777
peak area Ratio % ([3]; GSH Sample, 4 hours): 73.3%
